Among the data in patent US20170182087A1, “MAIN CHAIN POLYAMINES” (priority 2014, published 2017) are Cytotoxicity (Kidney Epithelial IC50) values, retold here.

In the data set the test system is human renal proximal tubule epithelial cells (RPTEC). In words: Cytotoxicity Assay, RPTEC Cells. It counts as cell-based. The method, then: Cells were plated at 3,000 cells/well (RPTEC) in 96-well plates and were incubated overnight at 37° C. The compounds were added to the wells, and the cells were incubated for 4 days. Alomar Blue was added to one set of plates and incubated for 4 hours. The plates were read when the compound was added (time zero) and at the end of the study. Fluorescence was read using 530 nm (excitation) and 590 nm (emission) according to the manufacturer's instructions.

For “Poly(1,3-bis N-(1,4-dimethybenzene)piperidin-4-yl)propane)”, the Cytotoxicity (Kidney Epithelial IC50) was 1.5 µg/mL.
Consider “Poly(1,3-bis(1,5-dimethybenzene)piperidin-4-yl)propane)”, for which the Cytotoxicity (Kidney Epithelial IC50) amounted to 1.5 µg/mL.
Take “Poly(1,3-bis(1-pentyl-piperidin-4-yl)propane [4,4′-Trimethylenedipiperidine/Glutaraldehyde (1:1.5) <10K]”: the Cytotoxicity (Kidney Epithelial IC50) stood at 4 µg/mL.
The same measure for “Poly(1,3-bis(1-pentyl-piperidin-4-yl)propane [4,4′-Trimethylenedipiperidine/Glutaraldehyde (1:1.5) >10K]”: 5 µg/mL; for “Poly(1,3-bis(1-pentyl-piperidin-4-yl)propane [4,4′-Trimethylenedipiperidine/Glutaraldehyde (1:2.5) <10K]”: 2 µg/mL; for “Poly(1,3-bis(1-pentyl-piperidin-4-yl)propane [4,4′-Trimethylenedipiperidine/Glutaraldehyde (1:3.5) <10K]”: 2 µg/mL.
As for “Poly(1,3-bis(1-pentyl-piperidin-4-yl)propane [4,4′-Trimethylenedipiperidine/Glutaraldehyde <10K]”, the Cytotoxicity (Kidney Epithelial IC50) came to 331 µg/mL.
“Poly(1,3-bis(1-pentyl-piperidin-4-yl)propane [4,4′-Trimethylenedipiperidine/Glutaraldehyde >10K]” had a Cytotoxicity (Kidney Epithelial IC50) of 1.5 µg/mL.
Consider “Poly(1,3-bis(1-pentyl-piperidin-4-yl)propane [Poly(4,4′-Trimethylenedipiperidine/Glutaraldehyde (1:1)), <1]”, for which the Cytotoxicity (Kidney Epithelial IC50) turned out to be 2 µg/mL.
On to “Poly(1,3-bis(1-pentyl-piperidin-4-yl)propane [Poly(4,4′-Trimethylenedipiperidine/Glutaraldehyde (1:1)), >1]”, for which the Cytotoxicity (Kidney Epithelial IC50) stood at 2 µg/mL.
As for “Poly((1,1′-dipentyl)-4,4-dipiperidine) [4,4′-dipiperidine/Glutaraldehyde <10K]”, the Cytotoxicity (Kidney Epithelial IC50) turned out to be 1.5 µg/mL.
The result for “Poly((1,1′-dipentyl)-4,4-dipiperidine) [Poly(1:1 Dipiperidine:Glutaraldehyde); <10K molecular weight]” reads 2 µg/mL.
